For orientation: inhibition means the drop in the measured response relative to a control, in per cent. A higher inhibition goes with a strong effect.

Our source for the inhibition values is ChEMBL document CHEMBL1126923, “Novel inhibitors of prolyl 4-hydroxylase. 5. The intriguing structure-activity relationships seen with 2,2'-bipyridine and its 5,5'-dicarboxylic acid derivatives” (J Med Chem, 1993).

In test [1] the test system is Prolyl 4-hydroxylase (Gallus gallus). As to the kind of experiment: Inhibition of prolyl 4-hydroxylase by chromatographic determination of [14C]-succinic acid on ion-exchange minicolumna at 50 ug/mL.
Test [2] shares this test system. Briefly: Inhibition of prolyl 4-hydroxylase by chromatographic determination of [14C]-succinic acid on ion-exchange minicolumna at 100 ug/mL.

Molecule `CCOc1ccc(NC(=O)c2ccc(-c3ccccn3)nc2)cc1` registered an inhibition in test [1] of 13%.

`CCOc1ccc(NC(=O)c2ccc(-c3ccc(C(=O)Nc4ccc(OCC)cc4)cn3)nc2)cc1` showed an inhibition in test [2] of 13%.
